Patent US6726928B2, “Process for preparing solid dosage forms for unpalatable pharmaceuticals” (R.P. Scherer Technologies, Inc., priority 1994, dated 2004)

Experiment: pH dependence of Piroxicam solubility
Type: physicochemical
Source text: The solubility of weak acids and weak bases may be adjusted by pH control. Increasing the pH of a solution can decrease solubility of a weak base, whereas the solubility of a weak acid can be […] by a pH decrease. The relative levels of weak acid or weak base added to the drug can be calculated with the knowledge of the Henderson-Hasselbalch equation, and by calculation of the pKa of the drug concerned in the solvent in question. […] Piroxicam ([…]) has a “U”-shaped pH solubility curve with a minimum around pH 3.5. […] A further advantage arising out of the reduced solubility of Piroxicam is reduced formation of the hydrate which has a bright yellow color.

pH of minimum of the U-shaped pH solubility curve: ~3.5
Structure (SMILES): CN1C(C(=O)Nc2ccccn2)=C(O)c2ccccc2S1(=O)=O [Piroxicam]
change in solubility on pH adjustment (pH adjusted from about 6.5 to approximately 4.0 by addition of an acid such as citric acid): approximately tenfold decrease in solubility
